Measured values published in the supplement of paper PMC10307832.

Legend:
Assay in all cases: relative viability (nuclei count vs DMSO), 5 days (fraction); higher = more cells survive
[1] = compound: CC(C)C[C@H](NC(=O)[C@H](Cc1ccccc1)NC(=O)c1cnccn1)B(O)O [Bortezomib] + CS(=O)(=O)N1CCN(Cc2cc3nc(-c4cccc5[nH]ncc45)nc(N4CCOCC4)c3s2)CC1 [Pictilisib] (partner 1 µM)
How it was run: (§1)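 Relative viability divides the nuclei count in treated wells by that in vehicle wells. Lung cancer cell lines were seeded in 1536-well plates, dosed by pin tool the next day, and fixed and stained after 5 days in one step with final 0.05% Triton X-100, 1% formaldehyde and 1 ug/ml Hoechst. Dosing was a single drug or a fixed anchor-drug dose plus five library-drug doses (not always all listed) in √10 steps, and values are medians of duplicate plates imaged at 4×.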

[2] = compound: CC1=CC(=NN1)NC2=CC(=NC(=N2)/C=C/C3=CC=CC=C3)N4CCN(CC4)C + Cc1nc(Nc2ncc(C(=O)Nc3c(C)cccc3Cl)s2)cc(N2CCN(CCO)CC2)n1 [Dasatinib] (partner 0.075 µM)
How it was run: as §1

[3] = compound: COC1=CC(c2cc3ccccc3[nH]2)=N/C1=C\c1[nH]c(C)cc1C [Obatoclax] + C[C@@H](Oc1cc(-c2cnn(C3CCNCC3)c2)cnc1N)c1c(Cl)ccc(F)c1Cl [Crizotinib] (partner 1 µM)
How it was run: as §1

[4] = compound: COC1=CC(c2cc3ccccc3[nH]2)=N/C1=C\c1[nH]c(C)cc1C [Obatoclax] + Cc1cc(Nc2cc(N3CCN(C)CC3)nc(Sc3ccc(NC(=O)C4CC4)cc3)n2)n[nH]1 [Tozasertib] (partner 0.1 µM)
How it was run: as §1

Cell Line	relative viability ([1]; first compound 0.0002 µM)	relative viability ([1]; first compound 0.000632 µM)	relative viability ([1]; first compound 0.002 µM)	relative viability ([1]; first compound 0.006325 µM)	relative viability ([1]; first compound 0.02 µM)	relative viability ([2]; first compound 0.08 µM)	relative viability ([2]; first compound 0.253 µM)	relative viability ([2]; first compound 0.8 µM)	relative viability ([2]; first compound 2.53 µM)	relative viability ([2]; first compound 8 µM)	relative viability ([3]; first compound 0.01 µM)	relative viability ([3]; first compound 0.03162 µM)	relative viability ([3]; first compound 0.3162 µM)	relative viability ([3]; first compound 1 µM)	relative viability ([4]; first compound 0.01 µM)	relative viability ([4]; first compound 0.03162 µM)	relative viability ([4]; first compound 0.1 µM)	relative viability ([4]; first compound 0.3162 µM)	relative viability ([4]; first compound 1 µM)	relative viability ([3]; first compound 0.1 µM)
HCC-78	0.183	0.23	0.207	0.21	0.193	0.444	0.436	0.469	0.234	0.221	0.326	0.34	0.317	0.314	0.338	0.404	0.664	0.399	0.344	–
HCC-366	0.119	0.12	0.117	0.166	0.0325	0.708	0.645	0.544	0.0369	0.0193	0.63	0.554	0.533	0.354	0.1	0.117	0.134	0.0528	0.0652	0.468
HCC-827	0.772	0.956	0.984	0.82	0.235	0.318	0.255	0.282	0.228	0.373	0.86	0.847	0.876	0.772	0.389	0.418	0.44	0.412	0.411	0.957
HOP-62	0.752	0.667	0.748	0.333	0.0568	0.605	0.72	0.772	0.355	0.197	0.837	0.911	0.796	1	0.357	0.343	0.353	0.393	0.299	0.998
IA-LM	0.299	0.321	0.278	0.0319	0.0054	–	–	–	–	–	0.667	0.91	0.0663	0.0759	–	–	–	–	–	0.529
LC-2-ad	0.558	–	0.486	0.0865	0.104	0.611	0.367	0.257	0.182	0.134	0.424	0.455	0.412	0.425	0.465	0.422	0.44	0.387	0.355	–
LCLC-97TM1	0.177	0.178	0.195	0.132	0.207	0.867	0.724	0.885	0.622	0.552	0.452	0.27	0.329	0.358	0.268	0.255	0.232	0.215	0.21	0.339
LCLC-103H	0.529	0.509	0.549	0.511	0.383	0.481	0.483	0.492	0.459	0.237	0.944	1.03	1.03	1.03	0.498	0.472	0.505	0.477	0.553	1.02
LK-2	–	0.559	0.295	0.251	0.245	0.242	0.246	0.226	0.139	0.0998	0.243	0.179	0.231	0.257	0.194	0.175	0.197	0.208	0.149	0.236
LOU-NH91	0.509	0.479	0.395	0.339	0.317	0.576	0.614	0.61	0.448	0.302	0.768	0.628	0.874	0.759	0.658	0.655	0.513	0.598	0.489	0.703
NCI-H522	–	–	–	–	–	0.94	0.795	0.662	0.482	0.388	–	–	–	–	0.656	0.429	0.605	0.545	0.539	–
NCI-H1299	0.722	0.776	0.511	0.0727	0.0315	–	–	–	–	–	0.918	0.944	0.921	0.492	–	–	–	–	–	0.959
NCI-H1395	0.566	0.58	0.531	0.445	0.294	0.424	0.409	0.4	0.344	0.28	–	–	–	–	0.674	0.609	0.64	0.769	0.547	–
NCI-H1563	0.68	0.622	0.655	0.538	0.486	0.462	0.463	0.497	0.432	0.288	0.786	0.864	0.906	0.653	–	–	–	–	–	0.881
NCI-H1623	–	–	–	–	–	0.469	0.559	0.614	0.494	0.543	–	–	–	–	0.428	0.422	0.426	0.451	0.38	–
NCI-H1648	–	–	–	–	–	–	–	–	–	–	–	–	–	–	0.515	0.499	1.01	0.465	0.361	–
NCI-H1703	0.259	0.208	0.146	0.128	0.121	–	–	–	–	–	0.762	0.697	0.348	0.311	–	–	–	–	–	0.394
NCI-H1792	0.29	0.21	0.192	0.306	0.175	0.749	0.848	0.733	0.525	0.151	0.999	0.948	0.999	0.99	–	–	–	–	–	–
NCI-H1793	0.282	0.305	0.297	0.269	0.18	0.379	0.446	0.365	0.138	0.0977	–	–	–	–	0.309	0.393	0.406	0.324	0.297	–
NCI-H2342	–	–	–	–	–	0.314	0.298	0.322	0.249	0.218	–	–	–	–	0.516	0.594	0.656	0.587	0.633	–
SW 900	–	–	–	–	–	0.644	0.585	0.413	0.418	0.0713	–	–	–	–	0.67	0.571	0.499	0.33	0.281	–
